How the values were obtained:
Assay in all cases: relative viability (nuclei count vs DMSO), 5 days (fraction); higher = more cells survive
201T = system: 201T
Procedure, shortened: (§1)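 For relative viability, nuclei counts in treated wells were divided by those in vehicle wells. Lung cancer cell lines had been pin-tool dosed in 1536-well plates the day after seeding and cultured for 5 days, then fixed and stained in one step (final 0.05% Triton X-100, 1% formaldehyde, 1 ug/ml Hoechst) and imaged at 4×. Doses were one drug alone or a fixed anchor-drug dose plus five library-drug doses (not always all listed) in √10 steps, and values are duplicate-plate medians.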

A-427 = system: A-427
Procedure, shortened: as §1

BEN = system: BEN
Procedure, shortened: as §1

COR-L23 = system: COR-L23
Procedure, shortened: as §1

EKVX = system: EKVX
Procedure, shortened: as §1

HARA = system: HARA
Procedure, shortened: as §1

HCC-15 = system: HCC-15
Procedure, shortened: as §1

HCC-44 = system: HCC-44
Procedure, shortened: as §1

HCC-827 = system: HCC-827
Procedure, shortened: as §1

NCI-H1437 = system: NCI-H1437
Procedure, shortened: as §1

NCI-H1650 = system: NCI-H1650
Procedure, shortened: as §1

NCI-H1666 = system: NCI-H1666
Procedure, shortened: as §1

NCI-H1792 = system: NCI-H1792
Procedure, shortened: as §1

NCI-H1975 = system: NCI-H1975
Procedure, shortened: as §1

NCI-H2342 = system: NCI-H2342
Procedure, shortened: as §1

NCI-H23 = system: NCI-H23
Procedure, shortened: as §1

NCI-H358 = system: NCI-H358
Procedure, shortened: as §1

NCI-H441 = system: NCI-H441
Procedure, shortened: as §1

NCI-H596 = system: NCI-H596
Procedure, shortened: as §1

NCI-H650 = system: NCI-H650
Procedure, shortened: as §1

NCI-H838 = system: NCI-H838
Procedure, shortened: as §1

SK-MES-1 = system: SK-MES-1
Procedure, shortened: as §1

SW 900 = system: SW 900
Procedure, shortened: as §1

`O=c1cc(-c2cccc3c2Sc2ccccc2S3)oc(N2CCOCC2)c1` + N=C(N)NC(=N)NCCc1ccccc1 [Phenformin] (partner 250 µM) was tested, and the relative viability (201T; first compound 0.08 µM) was 0.445, the relative viability (201T; first compound 0.253 µM) was 0.545 and the relative viability (201T; first compound 0.8 µM) was 0.423. For the same compound, the relative viability (201T; first compound 2.53 µM) was 0.427, the relative viability (201T; first compound 8 µM) was 0.498 and the relative viability (A-427; first compound 0.08 µM) was 0.282. The relative viability (A-427; first compound 0.253 µM) was 0.313, the relative viability (A-427; first compound 0.8 µM) was 0.376 and the relative viability (A-427; first compound 8 µM) was 0.35. It also gave a relative viability (BEN; first compound 0.08 µM) of 0.258, a relative viability (BEN; first compound 0.253 µM) of 0.306 and a relative viability (BEN; first compound 0.8 µM) of 0.248. It also gave a relative viability (BEN; first compound 2.53 µM) of 0.217, a relative viability (BEN; first compound 8 µM) of 0.3 and a relative viability (COR-L23; first compound 0.08 µM) of 0.478. For the same compound, the relative viability (COR-L23; first compound 0.253 µM) was 0.484, the relative viability (COR-L23; first compound 0.8 µM) was 0.511 and the relative viability (COR-L23; first compound 2.53 µM) was 0.459. For the same compound, the relative viability (COR-L23; first compound 8 µM) was 0.545, the relative viability (EKVX; first compound 0.08 µM) was 0.191 and the relative viability (EKVX; first compound 0.253 µM) was 0.237. The relative viability (EKVX; first compound 0.8 µM) was 0.218, the relative viability (EKVX; first compound 2.53 µM) was 0.209 and the relative viability (EKVX; first compound 8 µM) was 0.265. The relative viability (HARA; first compound 0.08 µM) was 0.452, the relative viability (HARA; first compound 0.253 µM) was 0.592 and the relative viability (HARA; first compound 0.8 µM) was 0.435. The relative viability (HARA; first compound 2.53 µM) was 0.348, the relative viability (HARA; first compound 8 µM) was 0.702 and the relative viability (HCC-15; first compound 0.08 µM) was 0.394. It also gave a relative viability (HCC-15; first compound 0.253 µM) of 0.608, a relative viability (HCC-15; first compound 0.8 µM) of 0.468 and a relative viability (HCC-15; first compound 2.53 µM) of 0.472. It also gave a relative viability (HCC-15; first compound 8 µM) of 0.503, a relative viability (HCC-44; first compound 0.08 µM) of 0.173 and a relative viability (HCC-44; first compound 0.253 µM) of 0.172. The relative viability (HCC-44; first compound 0.8 µM) was 0.144, the relative viability (HCC-44; first compound 2.53 µM) was 0.182 and the relative viability (HCC-44; first compound 8 µM) was 0.217. It also gave a relative viability (HCC-827; first compound 0.08 µM) of 0.396, a relative viability (HCC-827; first compound 0.253 µM) of 0.452 and a relative viability (HCC-827; first compound 0.8 µM) of 0.402. It also gave a relative viability (HCC-827; first compound 2.53 µM) of 0.306, a relative viability (HCC-827; first compound 8 µM) of 0.408 and a relative viability (NCI-H1437; first compound 0.08 µM) of 0.271. The relative viability (NCI-H1437; first compound 0.253 µM) was 0.683, the relative viability (NCI-H1437; first compound 0.8 µM) was 0.238 and the relative viability (NCI-H1437; first compound 2.53 µM) was 0.277. It also gave a relative viability (NCI-H1437; first compound 8 µM) of 0.343, a relative viability (NCI-H1650; first compound 0.08 µM) of 0.379 and a relative viability (NCI-H1650; first compound 0.253 µM) of 0.561. The relative viability (NCI-H1650; first compound 0.8 µM) was 0.434, the relative viability (NCI-H1650; first compound 2.53 µM) was 0.263 and the relative viability (NCI-H1650; first compound 8 µM) was 0.365. The relative viability (NCI-H1666; first compound 0.08 µM) was 0.601, the relative viability (NCI-H1666; first compound 0.253 µM) was 0.644 and the relative viability (NCI-H1666; first compound 0.8 µM) was 0.578. For the same compound, the relative viability (NCI-H1666; first compound 2.53 µM) was 0.572, the relative viability (NCI-H1666; first compound 8 µM) was 0.585 and the relative viability (NCI-H1792; first compound 0.08 µM) was 0.185. The relative viability (NCI-H1792; first compound 0.253 µM) was 0.349, the relative viability (NCI-H1792; first compound 0.8 µM) was 0.258 and the relative viability (NCI-H1792; first compound 2.53 µM) was 0.168. It also gave a relative viability (NCI-H1792; first compound 8 µM) of 0.345, a relative viability (NCI-H1975; first compound 0.08 µM) of 0.42 and a relative viability (NCI-H1975; first compound 0.253 µM) of 0.488. It also gave a relative viability (NCI-H1975; first compound 0.8 µM) of 0.418, a relative viability (NCI-H1975; first compound 2.53 µM) of 0.386 and a relative viability (NCI-H1975; first compound 8 µM) of 0.418. For the same compound, the relative viability (NCI-H2342; first compound 0.08 µM) was 0.526, the relative viability (NCI-H2342; first compound 0.253 µM) was 0.62 and the relative viability (NCI-H2342; first compound 0.8 µM) was 0.542. It also gave a relative viability (NCI-H2342; first compound 2.53 µM) of 0.557, a relative viability (NCI-H2342; first compound 8 µM) of 0.608 and a relative viability (NCI-H23; first compound 0.08 µM) of 0.811. It also gave a relative viability (NCI-H23; first compound 0.253 µM) of 0.96, a relative viability (NCI-H23; first compound 0.8 µM) of 0.901 and a relative viability (NCI-H23; first compound 2.53 µM) of 0.714. It also gave a relative viability (NCI-H23; first compound 8 µM) of 0.959, a relative viability (NCI-H358; first compound 0.08 µM) of 0.301 and a relative viability (NCI-H358; first compound 0.253 µM) of 0.436. The relative viability (NCI-H358; first compound 0.8 µM) was 0.378, the relative viability (NCI-H358; first compound 2.53 µM) was 0.362 and the relative viability (NCI-H358; first compound 8 µM) was 0.356. It also gave a relative viability (NCI-H441; first compound 0.08 µM) of 0.854, a relative viability (NCI-H441; first compound 0.253 µM) of 1.2 and a relative viability (NCI-H441; first compound 0.8 µM) of 0.895. For the same compound, the relative viability (NCI-H441; first compound 2.53 µM) was 0.903, the relative viability (NCI-H441; first compound 8 µM) was 0.904 and the relative viability (NCI-H596; first compound 0.08 µM) was 0.808. The relative viability (NCI-H596; first compound 0.253 µM) was 0.812, the relative viability (NCI-H596; first compound 0.8 µM) was 0.921 and the relative viability (NCI-H596; first compound 2.53 µM) was 0.756. The relative viability (NCI-H596; first compound 8 µM) was 0.887, the relative viability (NCI-H650; first compound 0.08 µM) was 0.386 and the relative viability (NCI-H650; first compound 0.253 µM) was 0.437. For the same compound, the relative viability (NCI-H650; first compound 0.8 µM) was 0.461, the relative viability (NCI-H650; first compound 8 µM) was 0.452 and the relative viability (NCI-H838; first compound 0.08 µM) was 0.517. For the same compound, the relative viability (NCI-H838; first compound 0.253 µM) was 0.726, the relative viability (NCI-H838; first compound 0.8 µM) was 0.488 and the relative viability (NCI-H838; first compound 2.53 µM) was 0.531. For the same compound, the relative viability (NCI-H838; first compound 8 µM) was 0.503, the relative viability (SK-MES-1; first compound 0.08 µM) was 0.681 and the relative viability (SK-MES-1; first compound 0.253 µM) was 0.762. It also gave a relative viability (SK-MES-1; first compound 0.8 µM) of 0.649, a relative viability (SK-MES-1; first compound 2.53 µM) of 0.642 and a relative viability (SK-MES-1; first compound 8 µM) of 0.666. It also gave a relative viability (SW 900; first compound 0.08 µM) of 0.645, a relative viability (SW 900; first compound 0.253 µM) of 0.627 and a relative viability (SW 900; first compound 0.8 µM) of 0.441. It also gave a relative viability (SW 900; first compound 2.53 µM) of 0.567 and a relative viability (SW 900; first compound 8 µM) of 0.597.

— the supplement of paper PMC10307832
